# Source: patent publication US12221446B2 (Merck Patent GmbH, priority 2018, dated 2025)
# Where two headings read alike, the source gives them in different places.
# Key:
# [1] = 25° C./60% rh; for Pyrazino-s-triazine derivative of 4α-hydroxy-5-methyl-THF (MeFox) (% w/w): major degradation product
# Description: Additionally the content of the pyrazino-s-triazine derivative of 4α-hydroxy-5-methyl-THF (MeFox), a major degradation product, was measured by HPLC at periodic intervals and disclosed as absolute values (% w/w).
# [2] = Water content / TG-FTIR analysis
# Description: Thermogravimetric measurements were carried out with a Netzsch Thermo-Microbalance TG 209 coupled to a Bruker FTIR Spectrometer Vector 22 (sample pans with a pinhole, N2 atmosphere, heating rate 10 K/min).
# [3] = Description: DVS measurements are typically performed with an SPS11-100n “Sorptions Prüfsystem” from ProUmid (formerly “Projekt Messtechnik”), August-Nagel-Str. 23, 89079 Ulm (Germany).
# DVS measurements were performed with an SPS11-100n “Sorptions Prüfsystem” from ProUmid (formerly “Projekt Messtechnik”), August-Nagel-Str. 23, 89079 Ulm (Germany).
# [4] = for Pyrazino-s-triazine derivative of 4α-hydroxy-5-methyl-THF (MeFox) (% abs.): 40° C./75% rh, major degradation product
smiles,measurement,setting,value
CN1c2c([nH]c(N)nc2=O)NC[C@@H]1CNc1ccc(C(=O)N[C@@H](CCC(=O)[O-])C(=O)[O-])cc1.[Ca+2],Pyrazino-s-triazine derivative of 4α-hydroxy-5-methyl-THF (MeFox) (% w/w),[1]; 0 months,0.20 % w/w
same,Pyrazino-s-triazine derivative of 4α-hydroxy-5-methyl-THF (MeFox) (% w/w),[1]; 3 months,0.59 % w/w
same,Pyrazino-s-triazine derivative of 4α-hydroxy-5-methyl-THF (MeFox) (% w/w),[1]; 6 months,0.71 % w/w
same,Pyrazino-s-triazine derivative of 4α-hydroxy-5-methyl-THF (MeFox) (% w/w),[1]; 9 months,0.68 % w/w
same,content of MeFox,[1]; already before reaching 9 months,over 0.6%
same,water content (generally),[2]; general statement,more than 10%
same,water content,[2]; measured on a sample,12.4%
same,change of water content,[3]; relative humidity from 20 to 75% r.h.,more than 6%
same,change of water content (DVS),"[3]; within the tested range, 0 to 75% r.h.",more than 6%
same,Pyrazino-s-triazine derivative of 4α-hydroxy-5-methyl-THF (MeFox) (% abs.),[4]; 0 months,0.20 % abs.
same,Pyrazino-s-triazine derivative of 4α-hydroxy-5-methyl-THF (MeFox) (% abs.),[4]; 3 months,0.72 % abs.
same,Pyrazino-s-triazine derivative of 4α-hydroxy-5-methyl-THF (MeFox) (% abs.),[4]; 6 months,0.80 % abs.
same,Pyrazino-s-triazine derivative of 4α-hydroxy-5-methyl-THF (MeFox) (% abs.),[4]; 9 months,0.68 % abs.
same,content of MeFox,[4]; already before reaching 9 months (Table 7),over 0.6%
